Test results: ChEMBL document CHEMBL4706511, “Structure-based design, synthesis and bioactivity evaluation of macrocyclic inhibitors of mutant isocitrate dehydrogenase 2 (IDH2) displaying activity in acute myeloid leukemia cells” (Eur J Med Chem, 2020)
pIC50: −log10 of the molar value.

Key:
[1] = Tmax in Sprague-Dawley rat at 10 mg/kg, po measured up to 24 hrs by LC-MS/MS analysis; format: ADME, organism-based; conditions: in vivo
[2] = target: Isocitrate dehydrogenase [NADP], mitochondrial (Homo sapiens, UniProt P48735, R140Q); assay: Inhibition of IDH2 R140Q mutant (unknown origin) assessed as reduction in NADPH consumption using alpha-ketoglutarate and NADPH as substrate preincubated with enzyme for 15 mins followed by substrate addition by fluorescence based assay
[3] = target: Isocitrate dehydrogenase [NADP], mitochondrial (Homo sapiens, UniProt P48735, R172K); assay: Inhibition of IDH2 R172K mutant (unknown origin) assessed as reduction in NADPH consumption using alpha-ketoglutarate and NADPH as substrate preincubated with enzyme for 15 mins followed by substrate addition by fluorescence based assay
[4] = Half life in Sprague-Dawley rat at 10 mg/kg, po measured up to 24 hrs by LC-MS/MS analysis; format: ADME, organism-based; conditions: in vivo
[5] = Half life in Sprague-Dawley rat at 1 mg/kg, iv measured up to 24 hrs by LC-MS/MS analysis; format: ADME, organism-based; conditions: in vivo
[6] = Cmax in Sprague-Dawley rat at 10 mg/kg, po measured up to 24 hrs by LC-MS/MS analysis; format: ADME, organism-based; parameters: route oral, dose 10 mg/kg, time <=24; conditions: in vivo
[7] = Cmax in Sprague-Dawley rat at 1 mg/kg, iv measured up to 24 hrs by LC-MS/MS analysis; format: ADME, organism-based; parameters: route intravenous, dose 1 mg/kg, time <=24; conditions: in vivo
[8] = AUC (0 to t) in Sprague-Dawley rat at 10 mg/kg, po measured up to 24 hrs by LC-MS/MS analysis; format: ADME, organism-based; parameters: route oral, dose 10 mg/kg, time <=24; conditions: in vivo
[9] = AUC (0 to t) in Sprague-Dawley rat at 1 mg/kg, iv measured up to 24 hrs by LC-MS/MS analysis; format: ADME, organism-based; parameters: route intravenous, dose 1 mg/kg, time <=24; conditions: in vivo
[10] = AUC (0 to infinity) in Sprague-Dawley rat at 10 mg/kg, po measured up to 24 hrs by LC-MS/MS analysis; format: ADME, organism-based; parameters: route oral, dose 10 mg/kg, time <=24; conditions: in vivo
[11] = AUC (0 to infinity) in Sprague-Dawley rat at 1 mg/kg, iv measured up to 24 hrs by LC-MS/MS analysis; format: ADME, organism-based; parameters: route intravenous, dose 1 mg/kg, time <=24; conditions: in vivo
[12] = MRT (0 to t) in Sprague-Dawley rat at 10 mg/kg, po measured upto 24 hrs by LC-MS/MS analysis; format: ADME, organism-based; conditions: in vivo
[13] = MRT (0 to t) in Sprague-Dawley rat at 1 mg/kg, iv measured upto 24 hrs by LC-MS/MS analysis; format: ADME, organism-based; conditions: in vivo
[14] = Oral bioavailability Sprague-Dawley rat at 10 mg/kg measured up to 24 hrs by LC-MS/MS analysis; format: ADME, organism-based; conditions: in vivo

Sequence of Isocitrate dehydrogenase [NADP], mitochondrial (Homo sapiens, UniProt P48735, R140Q) (P48735 40-452 R140Q limits assumed): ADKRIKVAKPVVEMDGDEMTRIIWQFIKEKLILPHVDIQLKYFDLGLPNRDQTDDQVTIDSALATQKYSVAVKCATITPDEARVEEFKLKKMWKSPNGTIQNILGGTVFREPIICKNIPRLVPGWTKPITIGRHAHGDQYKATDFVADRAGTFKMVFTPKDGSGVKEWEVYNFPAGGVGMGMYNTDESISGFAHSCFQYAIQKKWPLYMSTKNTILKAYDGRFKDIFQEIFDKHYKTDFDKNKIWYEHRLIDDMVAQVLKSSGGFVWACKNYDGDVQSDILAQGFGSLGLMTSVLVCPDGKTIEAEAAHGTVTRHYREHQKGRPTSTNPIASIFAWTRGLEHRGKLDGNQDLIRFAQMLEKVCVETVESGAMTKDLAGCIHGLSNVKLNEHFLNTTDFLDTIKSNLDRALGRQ
Sequence of Isocitrate dehydrogenase [NADP], mitochondrial (Homo sapiens, UniProt P48735, R172K) (P48735 40-452 R172K limits assumed): as the sequence (P48735 40-452 R140Q limits assumed) above, with Q101R, R133K counted along it

SMILES: CS(=O)(=O)O.FC(F)(F)c1cc2cc(c1)Nc1nc(nc(-c3cccc(C(F)(F)F)n3)n1)NCCCCCC2
- Tmax [1]: 1.33 h
- pIC50 [2]: 7.22
- pIC50 [3]: 7.11
- half-life [4]: 6.63 h
- t1/2 [5]: 0.22 h
- Cmax [6]: 237 ng/mL
- Cmax [7]: 1255.13 ng/mL
- AUC(0-t) at 24 h [8]: 2700 ng·h/mL
- AUC(0-t) at 24 h [9]: 1370 ng·h/mL
- AUC(0-inf) [10]: 2750 ng·h/mL
- AUC [11]: 1372.5 ng·h/mL
- MRT last at 24 h [12]: 6.03 h
- MRT(t) [13]: 2.4 h
- bioavailability [14]: 19.8%
